Laboratory results as given in PubChem BioAssay AID248 (DTP/NCI, 2004).
“And” between values parts separate entries of the source, which are not always exact repeats. Equal entries are not always repeated. Inconclusive results and toxic doses are left out. Rule as the data show it: active = T/C of 150% or more; inactive = T/C below 125%.

Tested on: L1210 leukemia ip in BDF1 mice, survival T/C
Experiment: NCI In Vivo Anticancer Drug Screen. Data for tumor model L1210 Leukemia (intraperitoneal) in B6D2F1 (BDF1) mice
Details: higher = longer survival
In short: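 Transplanted-tumor mice were given test agent; controls received vehicle only. Survival readings from the two groups were divided (treated over control).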

Measured: T/C

CC[C@]1(O)C[C@H]2CN(CCc3c([nH]c4ccccc34)[C@@](C(=O)OC)(c3cc4c(cc3OC)N(C=O)[C@H]3[C@@](O)(C(=O)OC)[C@H](OC(C)=O)[C@]5(CC)C=CCN6CC[C@]43[C@@H]65)C2)C1
inactive: endpoint: mean survival time, dose: 0.03 mg/kg/injection, schedule: Q01DX015 (ip), vehicle: saline 108 % of control | endpoint: mean survival time, dose: 0.03 mg/kg/injection, schedule: Q03HX032 (ip), vehicle: saline 107 % of control | endpoint: mean survival time, dose: 0.03 mg/kg/injection, schedule: Q## X032 (ip), vehicle: saline 107 % of control | endpoint: mean survival time, dose: 0.04 mg/kg/injection, schedule: Q03HX032 (ip), vehicle: saline 109 % of control | endpoint: mean survival time, dose: 0.04 mg/kg/injection, schedule: Q## X032 (ip), vehicle: saline 109 % of control | endpoint: mean survival time, dose: 0.05 mg/kg/injection, schedule: Q01DX005 (ip), vehicle: saline 101 % of control | endpoint: mean survival time, dose: 0.05 mg/kg/injection, schedule: Q01DX005 (iv), vehicle: saline 101 % of control | endpoint: mean survival time, dose: 0.05 mg/kg/injection, schedule: Q01DX015 (ip), vehicle: saline 108 % of control | endpoint: mean survival time, dose: 0.06 mg/kg/injection, schedule: Q01DX Z (ip), vehicle: water 105 % of control | endpoint: mean survival time, dose: 0.06 mg/kg/injection, schedule: Q## X032 (ip), vehicle: saline 113 % of control | endpoint: mean survival time, dose: 0.07 mg/kg/injection, schedule: Q03HX032 (ip), vehicle: saline 113 % of control | endpoint: mean survival time, dose: 0.08 mg/kg/injection, schedule: Q04DX002 (ip), vehicle: saline 102 % of control and 104 % of control | endpoint: mean survival time, dose: 0.1 mg/kg/injection, schedule: Q01DX005 (ip), vehicle: saline 116 % of control | endpoint: mean survival time, dose: 0.1 mg/kg/injection, schedule: Q01DX005 (iv), vehicle: saline 100 % of control | endpoint: mean survival time, dose: 0.12 mg/kg/injection, schedule: Q01DX Z (ip), vehicle: water 108 % of control | endpoint: mean survival time, dose: 0.15 mg/kg/injection, schedule: Q01DX015 (ip), vehicle: saline 114 % of control | endpoint: mean survival time, dose: 0.15 mg/kg/injection, schedule: Q04DX002 (ip), vehicle: saline 100 % of control and 105 % of control | endpoint: mean survival time, dose: 0.2 mg/kg/injection, schedule: Q01DX005 (ip), vehicle: saline 115 % of control | endpoint: mean survival time, dose: 0.2 mg/kg/injection, schedule: Q01DX005 (iv), vehicle: saline 106 % of control | endpoint: mean survival time, dose: 0.2 mg/kg/injection, schedule: Q04DX002 (ip), vehicle: saline 104 % of control | endpoint: mean survival time, dose: 0.23 mg/kg/injection, schedule: Q04DX003 (ip), vehicle: saline 110 % of control | endpoint: mean survival time, dose: 0.25 mg/kg/injection, schedule: Q01DX Z (ip), vehicle: water 115 % of control | endpoint: mean survival time, dose: 0.39 mg/kg/injection, schedule: Q04DX002 (ip), vehicle: saline 110 % of control | endpoint: mean survival time, dose: 0.4 mg/kg/injection, schedule: Q01DX005 (ip), vehicle: saline 105 % of control | endpoint: mean survival time, dose: 0.4 mg/kg/injection, schedule: Q01DX005 (iv), vehicle: saline 100 % of control | endpoint: mean survival time, dose: 0.5 mg/kg/injection, schedule: Q01DX009 (ip), vehicle: saline 105 % of control | endpoint: mean survival time, dose: 0.5 mg/kg/injection, schedule: Q01DX Z (ip), vehicle: saline 97 % of control | endpoint: mean survival time, dose: 0.5 mg/kg/injection, schedule: Q01DX Z (ip), vehicle: water 108 % of control | endpoint: mean survival time, dose: 0.5 mg/kg/injection, schedule: Q04DX004 (ip), vehicle: saline 110 % of control | endpoint: mean survival time, dose: 0.75 mg/kg/injection, schedule: Q01DX015 (ip), vehicle: saline 113 % of control | endpoint: mean survival time, dose: 0.8 mg/kg/injection, schedule: Q01DX001 (ip), vehicle: saline 115 % of control | endpoint: mean survival time, dose: 0.8 mg/kg/injection, schedule: Q01DX005 (iv), vehicle: saline 116 % of control | endpoint: mean survival time, dose: 0.8 mg/kg/injection, schedule: Q01DX015 (ip), vehicle: saline 108 % of control | endpoint: mean survival time, dose: 1.0 mg/kg/injection, schedule: Q01DX Z (ip), vehicle: water 95 % of control and 99 % of control | endpoint: mean survival time, dose: 1.0 mg/kg/injection, schedule: Q04DX004 (ip), vehicle: saline 115 % of control | endpoint: mean survival time, dose: 1.12 mg/kg/injection, schedule: Q01DX015 (ip), vehicle: saline 105 % of control | endpoint: mean survival time, dose: 1.5 mg/kg/injection, schedule: Q01DX001 (ip), vehicle: water 109 % of control and 112 % of control | endpoint: mean survival time, dose: 1.5 mg/kg/injection, schedule: Q04DX002 (ip), vehicle: saline 116 % of control | endpoint: mean survival time, dose: 6.0 mg/kg/injection, schedule: Q01DX001 (ip), vehicle: water 107 % of control | endpoint: mean survival time, dose: 3.2 micrograms/kg/injection, schedule: Q01DX015 (ip), vehicle: saline 94 % of control | endpoint: mean survival time, dose: 6.3 micrograms/kg/injection, schedule: Q01DX015 (ip), vehicle: saline 97 % of control | endpoint: mean survival time, dose: 11.0 micrograms/kg/injection, schedule: Q01DX009 (ip), vehicle: saline 102 % of control and 109 % of control | endpoint: mean survival time, dose: 12.5 micrograms/kg/injection, schedule: Q01DX015 (ip), vehicle: saline 98 % of control | endpoint: mean survival time, dose: 15.6 micrograms/kg/injection, schedule: Q03HX008 (ip), vehicle: clinical formulation 104 % of control | endpoint: mean survival time, dose: 15.6 micrograms/kg/injection, schedule: Q03HX016 (ip), vehicle: clinical formulation 100 % of control | endpoint: mean survival time, dose: 15.6 micrograms/kg/injection, schedule: Q03HX024 (ip), vehicle: clinical formulation 102 % of control | endpoint: mean survival time, dose: 23.0 micrograms/kg/injection, schedule: Q01DX009 (ip), vehicle: saline 98 % of control and 100 % of control | endpoint: mean survival time, dose: 25.0 micrograms/kg/injection, schedule: Q01DX015 (ip), vehicle: saline 112 % of control | endpoint: mean survival time, dose: 31.2 micrograms/kg/injection, schedule: Q01DX009 (ip), vehicle: clinical formulation 102 % of control | endpoint: mean survival time, dose: 31.2 micrograms/kg/injection, schedule: Q03HX008 (ip), vehicle: clinical formulation 106 % of control | endpoint: mean survival time, dose: 31.2 micrograms/kg/injection, schedule: Q03HX016 (ip), vehicle: clinical formulation 105 % of control | endpoint: mean survival time, dose: 47.0 micrograms/kg/injection, schedule: Q01DX009 (ip), vehicle: saline 109 % of control and 114 % of control | endpoint: mean survival time, dose: 50.0 micrograms/kg/injection, schedule: Q01DX015 (ip), vehicle: saline 113 % of control | endpoint: mean survival time, dose: 62.5 micrograms/kg/injection, schedule: Q03HX008 (ip), vehicle: clinical formulation 112 % of control | endpoint: mean survival time, dose: 62.5 micrograms/kg/injection, schedule: Q03HX016 (ip), vehicle: clinical formulation 105 % of control | endpoint: mean survival time, dose: 62.5 micrograms/kg/injection, schedule: Q04DX003 (ip), vehicle: clinical formulation 113 % of control | endpoint: mean survival time, dose: 100.0 micrograms/kg/injection, schedule: Q01DX015 (ip), vehicle: saline 103 % of control | endpoint: mean survival time, dose: 125.0 micrograms/kg/injection, schedule: Q01DX001 (ip), vehicle: clinical formulation 104 % of control | endpoint: mean survival time, dose: 125.0 micrograms/kg/injection, schedule: Q04DX003 (ip), vehicle: clinical formulation 115 % of control | endpoint: mean survival time, dose: 125.0 micrograms/kg/injection, schedule: Q08DX002 (ip), vehicle: clinical formulation 101 % of control | endpoint: mean survival time, dose: 200.0 micrograms/kg/injection, schedule: Q01DX015 (ip), vehicle: saline 115 % of control | endpoint: mean survival time, dose: 216.0 micrograms/kg/injection, schedule: Q04DX003 (ip), vehicle: saline 116 % of control | endpoint: mean survival time, dose: 250.0 micrograms/kg/injection, schedule: Q01DX001 (ip), vehicle: clinical formulation 106 % of control | endpoint: mean survival time, dose: 250.0 micrograms/kg/injection, schedule: Q03HX024 (ip), vehicle: clinical formulation 98 % of control | endpoint: mean survival time, dose: 250.0 micrograms/kg/injection, schedule: Q04DX003 (ip), vehicle: clinical formulation 116 % of control | endpoint: mean survival time, dose: 250.0 micrograms/kg/injection, schedule: Q08DX002 (ip), vehicle: clinical formulation 108 % of control | endpoint: mean survival time, dose: 500.0 micrograms/kg/injection, schedule: Q01DX001 (ip), vehicle: clinical formulation 113 % of control | endpoint: mean survival time, dose: 500.0 micrograms/kg/injection, schedule: Q08DX002 (ip), vehicle: clinical formulation 106 % of control | endpoint: mean survival time, dose: 600.0 micrograms/kg/injection, schedule: Q04DX003 (ip), vehicle: saline 112 % of control | endpoint: mean survival time, dose: 740.0 micrograms/kg/injection, schedule: Q01DX009 (ip), vehicle: saline 92 % of control and 102 % of control | endpoint: mean survival time, dose: 1000.0 micrograms/kg/injection, schedule: Q08DX002 (ip), vehicle: clinical formulation 108 % of control | endpoint: mean survival time, dose: 2000.0 micrograms/kg/injection, schedule: Q01DX001 (ip), vehicle: clinical formulation 116 % of control | endpoint: median survival time, dose: 0.02 mg/kg/injection, schedule: Q01DX001 (ip), vehicle: water 103 % of control | endpoint: median survival time, dose: 0.03 mg/kg/injection, schedule: Q01DX001 (ip), vehicle: water 103 % of control | endpoint: median survival time, dose: 0.05 mg/kg/injection, schedule: Q01DX001 (ip), vehicle: water 108 % of control | endpoint: median survival time, dose: 0.14 mg/kg/injection, schedule: Q01DX009 (ip), vehicle: water 114 % of control | endpoint: median survival time, dose: 0.25 mg/kg/injection, schedule: Q01DX002 (ip), vehicle: water 110 % of control | endpoint: median survival time, dose: 0.25 mg/kg/injection, schedule: Q01DX009 (ip), vehicle: water 115 % of control | endpoint: median survival time, dose: 0.4 mg/kg/injection, schedule: Q01DX001 (ip), vehicle: saline 111 % of control | endpoint: median survival time, dose: 0.4 mg/kg/injection, schedule: Q01DX009 (ip), vehicle: water 100 % of control and 103 % of control | endpoint: median survival time, dose: 0.5 mg/kg/injection, schedule: Q01DX001 (ip), vehicle: water 99 % of control and 100 % of control | endpoint: median survival time, dose: 1.0 mg/kg/injection, schedule: Q01DX001 (ip), vehicle: water 102 % of control | endpoint: median survival time, dose: 2.0 mg/kg/injection, schedule: Q01DX001 (ip), vehicle: water 116 % of control | endpoint: median survival time, dose: 2.0 mg/kg/injection, schedule: Q01DX002 (ip), vehicle: water 108 % of control
